Measurements as given in US12565659B2, “Recombinant lac polynucleotides and uses thereof to increase production of C-lignin in plants” (UNIVERSITY OF NORTH TEXAS, priority 2020, dated 2026).
Marks after values point to notes of the source that are not given here.

Tested on: Recombinant ChLAC8
Experiment: Laccase activity assay and enzyme kinetics of recombinant ChLAC8 with monolignol substrates
Format: biochemical, Cleome hassleriana
Conditions: for oxidation of monolignol by ChLAC8 (decrease in substrate by HPLC): 200 μM substrate, 30 min, 25° C.; for dimers in reaction products (LC-MS/MS) / trimers in reaction products (LC-MS/MS): reaction with ChLAC8; for Kcat / Km / Vmax: recombinant ChLAC8, substrate 25 to 800 μM, pH 6.8, 25° C.
Experimental: The open reading frame (ORF) of ChLAC8 (ChLAC8X1, XM_010555066.1) was amplified with the primers listed in Wang Supp. Table 4, ligated into the pENTR/D-TOPO vector (Invitrogen), and subcloned into pDEST17 fused with a 6× histidine tag at the N-terminus via Gateway LR recombination reaction (Invitrogen). The resulting vector (pDEST17-ChLAC8) was transformed into E. coli Rosetta (DE3) (Novagen) for protein expression. The transgenic E. coli strain was cultured in LB medium at 37° C. until OD600=0.4-0.6 and then supplemented with 0.5 mM isopropyl-β-D-thiogalactoside (IPTG) to induce the expression of ChLAC8 at 16° C. for 20 h. After induction, cell cultures were harvested by centrifugation at 10,000×g for 5 min at 4° C., and the resulting pellets were used for ChLAC8 protein purification via Ni-NTA resin (Thermo Scientific) according to the manufacturer's manual. The eluted protein was further desalted into 50 mM potassium phosphate buffer (pH 6.8) using a 30 kDa cut-off Amicon Ultra centrifugal filter (Millipore). The purity of recombinant ChLAC8 was examined by SDS-PAGE and the protein concentration was quantified by Bradford assays.
Laccase activity assays were performed in a 100 μL reaction mixture consisting of 50 mM potassium phosphate buffer (pH 6.8), 10-20 μg of recombinant ChLAC8, and 200 μM monolignol substrate (caffeyl alcohol, coniferyl alcohol or sinapyl alcohol). The reactions were incubated at 25° C. for 30 min and terminated by adding 100 μL of methanol. The reaction products were injected into an HPLC or LC-MS/MS system for analysis as described below. The decrease in the level of the substrate was measured to calculate the enzyme activity. To determine kinetic parameters, ChLAC8 was incubated with different concentrations of caffeyl alcohol or sinapyl alcohol in a range from 25 to 800 μM. The enzyme assays were performed in triplicate at each substrate concentration, and the Vmax and Km values were calculated by Graphpad Prism 8 software with nonlinear regression analysis.
The reaction products were analyzed on an Agilent 1260 HPLC system equipped with a Luna C18(2) reverse-phase column (5 μm particle, 250×4.6 mm, Phenomenex) and separated in a mobile phase consisting of solvent A (1% in phosphoric acid in water) and solvent B (acetonitrile) with the following gradient: 5% B for 5 min, to 33% B in 25 min, to 45% B in 5 min, to 95% B in 5 min, keep at 95% B for 5 min, back to 5% B in 5 min.
LC-MS/MS analysis was performed using an Agilent 1290 Infinity II liquid chromatography system coupled to an Agilent 6400 Series Triple Quadrupole System with electrospray ionization source in negative ionization mode. A reverse phase ZORBAX RR Eclipse Plus C18, 95 Å, 4.6×250 mm, 5 μm (Agilent) was used for separation. The gradient for HPLC separation was 0.1% (v/v) formic acid in water (A) and 0.1% (v/v) formic acid in acetonitrile (B) with the following solvent gradient: 5% B for 5 min, to 40% B in 30 min, to 95% B in 5 min, 95% B for 5 min, to 5% B in 1 min. The total LC-MS/MS run was 46 min with a flow rate of 1.0 mL/min. Injection volume was 10 μL. MS data were recorded in the range of m/z 100-700 (Perna et al., 2018).

oxidation of monolignol by ChLAC8 (decrease in substrate by HPLC)	dimers in reaction products (LC-MS/MS)	trimers in reaction products (LC-MS/MS)	Km value for caffeyl alcohol relative to that for sinapyl alcohol (recombinant ChLAC8) [fold]	Kcat	Km [µM]	Vmax [pKat mg^−1]	SMILES
could oxidize	consistent with the masses of dimers	trimers were observed	~3.5	0.019 ± 0.003* sec^−1	210 ± 90.6	284.4 ± 50.4	OC/C=C/c1ccc(O)c(O)c1 [Caffeyl alcohol, caffeyl alcohol]
not	No dimers were detected						COc1cc(/C=C/CO)ccc1O [Coniferyl alcohol, coniferyl alcohol]
could oxidize	consistent with the masses of dimers	No trimers were detected		0.013 ± 0.001 s⁻¹	60.2 ± 16.7	192.0 ± 12.8	COc1cc(/C=C/CO)cc(OC)c1O [Sinapyl alcohol, sinapyl alcohol]
